Assay results as given in ChEMBL document CHEMBL1133384, “Synthesis and study of a new adenine-acridine tandem, inhibitor of exonuclease III” (Bioorg Med Chem Lett, 2000).

How the values were obtained:
L1210 = assay: The cytotoxicity against murine leukemia L1210; assay type: functional, cell-based; details: Mus musculus
Nucleic Acid = assay: Compound was evaluated for its binding affinity constant for native calf thymus DNA in competition experiment with ethium bromide; assay type: nucleic-acid assay, Bos taurus

With `COc1ccc2nc3cc(Cl)ccc3c(NCCCN(CCC(=O)NCCn3cnc4c(N)ncnc43)C(=N)N)c2c1.Cl` the IC50 (L1210) was > 100 µM and the Ka (Nucleic Acid) was 200000 M⁻¹.
